Experimental data as given in PMC11981944 (Nature, 2025).

B1: Fab-B (Fab, V domains shown)
VH: EVQLQQSGPELVKPGASMKISCKTSGYSFTGYTMNWVKQSHGKNLEWIGLINPYNGDTSYNQKFKGKATLTVDKSSSTAYMELLSLTSEDSAVYYCEVINTYWGQGTLVTVSA
VL: DIVMTQSPASLAVSLGQRATISCKASQSIDYDGDNYMNWYQQKPGQPPKLLIYTTSNLESGIPARFSGSGSGTDFTLNIHPVEEGDAATYYCQQNNEDPYTFGGGTKLEIK

Key:
[1] = tested on: SARS-CoV-2 rWuhan M(P132S); assay type: cell-based
[2] = biological target: SARS-CoV-2 M protein (membrane protein), purified recombinant (SARS-CoV-2, UniProt P0DTC5); experiment: cryo-EM structure

Molecule	susceptibility of M(P132S) virus (in words) [1]	binding result [2]
N#C[C@@]1(c2ccc3c(N)ncnn23)O[C@H](CO)[C@@H](O)[C@H]1O [GS-441524]	remained fully susceptible	
CC(C)(C)[C@H](NC(=O)C(F)(F)F)C(=O)N1C[C@H]2[C@@H]([C@H]1C(=O)N[C@H](C#N)C[C@@H]1CCNC1=O)C2(C)C [Nirmatrelvir]	remained fully susceptible	
B1		binds
